# Organism: Rattus norvegicus
# Assay: DrugMatrix - Regimen: Daily Repeat
# Type: toxicity, organism-based, Sprague-Dawley
# Design: regimen Daily Repeat, gender Male, age 6-8 weeks
# Conditions: in vivo, po, route oral GAVAGE, […]; for ABSOLUTE BASOPHIL / ABSOLUTE EOSINOPHIL / ABSOLUTE LYMPHOCYTE / ABSOLUTE MONOCYTE / ABSOLUTE SEGMENTED NEUTROPHIL / BASOPHIL / EOSINOPHIL / ERYTHROCYTE COUNT / HEMATOCRIT / HEMOGLOBIN / LEUKOCYTE COUNT / LYMPHOCYTE / MEAN CORPUSCULAR HEMOGLOBIN / MEAN CORPUSCULAR HEMOGLOBIN CONCENTRATION / MEAN CORPUSCULAR VOLUME / MONOCYTE / NEUTROPHIL / NUCLEATED RED BLOOD CELLS / PLATELET COUNT: tissue Blood; for ALANINE AMINOTRANSFERASE / ALBUMIN / ALKALINE PHOSPHATASE / ASPARTATE AMINOTRANSFERASE / BLOOD UREA NITROGEN / CARBON DIOXIDE / CHLORIDE / CHOLESTEROL / CREATINE PHOSPHOKINASE / CREATININE / GLUCOSE / LACTATE DEHYDROGENASE / LIPASE / PHOSPHORUS / POTASSIUM / SODIUM / TOTAL BILIRUBIN / TOTAL PROTEIN / URIC ACID: tissue Plasma
# [1] = 0 mg/kg, 72 h, dose level Control, time 3 day
# [2] = 0 mg/kg, 120 h, dose level Control, time 5 day
# [3] = 100 mg/kg, 72 h, dose level Low, time 3 day
smiles,measurement,setting,value
CC(C)(Oc1ccc(Cl)cc1)C(=O)O [CLOFIBRIC ACID],ABSOLUTE BASOPHIL,[1],0 CELLS/uL
same,ABSOLUTE EOSINOPHIL,[1],0 CELLS/uL
same,ABSOLUTE LYMPHOCYTE,[1],14687.67 CELLS/uL
same,ABSOLUTE MONOCYTE,[1],164 CELLS/uL
same,ABSOLUTE SEGMENTED NEUTROPHIL,[1],1748.33 CELLS/uL
same,BASOPHIL,[1],0%
same,EOSINOPHIL,[1],0%
same,ERYTHROCYTE COUNT,[1],5.51 x10E6/uL
same,HEMATOCRIT,[1],33.68%
same,HEMOGLOBIN,[1],13.4 G/DL
same,LEUKOCYTE COUNT,[1],16.6 x10E3/uL
same,LYMPHOCYTE,[1],88.83%
same,MEAN CORPUSCULAR HEMOGLOBIN,[1],24.47 pg
same,MEAN CORPUSCULAR HEMOGLOBIN CONCENTRATION,[1],39.82 G/DL
same,MEAN CORPUSCULAR VOLUME,[1],61.23 fL
same,MONOCYTE,[1],0.83%
same,NEUTROPHIL,[1],10.33%
same,NUCLEATED RED BLOOD CELLS,[1],0 /100WBC
same,PLATELET COUNT,[1],1329.67 x10E3/uL
same,ALANINE AMINOTRANSFERASE,[1],61.33 u/L
same,ALBUMIN,[1],4.18 G/DL
same,ALKALINE PHOSPHATASE,[1],332.5 u/L
same,ASPARTATE AMINOTRANSFERASE,[1],98.33 u/L
same,BLOOD UREA NITROGEN,[1],15.83 mg/dL
same,CARBON DIOXIDE,[1],27.83 mmol/L
same,CHLORIDE,[1],100 MEQ/L
same,CHOLESTEROL,[1],76.17 mg/dL
same,CREATINE PHOSPHOKINASE,[1],729.17 u/L
same,CREATININE,[1],0.21 mg/dL
same,GLUCOSE,[1],151.83 mg/dL
same,LACTATE DEHYDROGENASE,[1],484.67 u/L
same,LIPASE,[1],10 u/L
same,PHOSPHORUS,[1],11.3 mg/dL
same,POTASSIUM,[1],6.1 MEQ/L
same,SODIUM,[1],142.9 MEQ/L
same,TOTAL BILIRUBIN,[1],0.23 mg/dL
same,TOTAL PROTEIN,[1],5.68 G/DL
same,URIC ACID,[1],1.75 mg/dL
same,ABSOLUTE BASOPHIL,[2],0 CELLS/uL
same,ABSOLUTE EOSINOPHIL,[2],58.67 CELLS/uL
same,ABSOLUTE LYMPHOCYTE,[2],15950.83 CELLS/uL
same,ABSOLUTE MONOCYTE,[2],172.5 CELLS/uL
same,ABSOLUTE SEGMENTED NEUTROPHIL,[2],2551.33 CELLS/uL
same,BASOPHIL,[2],0%
same,EOSINOPHIL,[2],0.33%
same,ERYTHROCYTE COUNT,[2],5.5 x10E6/uL
same,HEMATOCRIT,[2],34.05%
same,HEMOGLOBIN,[2],13.42 G/DL
same,LEUKOCYTE COUNT,[2],18.73 x10E3/uL
same,LYMPHOCYTE,[2],84.5%
same,MEAN CORPUSCULAR HEMOGLOBIN,[2],24.42 pg
same,MEAN CORPUSCULAR HEMOGLOBIN CONCENTRATION,[2],39.42 G/DL
same,MEAN CORPUSCULAR VOLUME,[2],61.97 fL
same,MONOCYTE,[2],1%
same,NEUTROPHIL,[2],14.17%
same,NUCLEATED RED BLOOD CELLS,[2],0.33 /100WBC
same,PLATELET COUNT,[2],1143.17 x10E3/uL
same,ALANINE AMINOTRANSFERASE,[2],57 u/L
same,ALBUMIN,[2],4.17 G/DL
same,ALKALINE PHOSPHATASE,[2],347.33 u/L
same,ASPARTATE AMINOTRANSFERASE,[2],93.67 u/L
same,BLOOD UREA NITROGEN,[2],15.67 mg/dL
same,CARBON DIOXIDE,[2],27.17 mmol/L
same,CHLORIDE,[2],104.33 MEQ/L
same,CHOLESTEROL,[2],69.5 mg/dL
same,CREATINE PHOSPHOKINASE,[2],317.17 u/L
same,CREATININE,[2],0.2 mg/dL
same,GLUCOSE,[2],162.33 mg/dL
same,LACTATE DEHYDROGENASE,[2],408.67 u/L
same,LIPASE,[2],10.17 u/L
same,PHOSPHORUS,[2],11.08 mg/dL
same,POTASSIUM,[2],6.36 MEQ/L
same,SODIUM,[2],146.07 MEQ/L
same,TOTAL BILIRUBIN,[2],0.22 mg/dL
same,TOTAL PROTEIN,[2],5.92 G/DL
same,URIC ACID,[2],1.47 mg/dL
same,ABSOLUTE BASOPHIL,[3],0 CELLS/uL
same,ABSOLUTE EOSINOPHIL,[3],83.33 CELLS/uL
same,ABSOLUTE LYMPHOCYTE,[3],12714.67 CELLS/uL
same,ABSOLUTE MONOCYTE,[3],127.67 CELLS/uL
same,ABSOLUTE SEGMENTED NEUTROPHIL,[3],1507.67 CELLS/uL
same,BASOPHIL,[3],0%
same,EOSINOPHIL,[3],0.67%
same,ERYTHROCYTE COUNT,[3],5.9 x10E6/uL
same,HEMATOCRIT,[3],36.47%
same,HEMOGLOBIN,[3],14.53 G/DL
same,LEUKOCYTE COUNT,[3],14.43 x10E3/uL
same,LYMPHOCYTE,[3],88%
same,MEAN CORPUSCULAR HEMOGLOBIN,[3],24.67 pg
same,MEAN CORPUSCULAR HEMOGLOBIN CONCENTRATION,[3],39.87 G/DL
same,MEAN CORPUSCULAR VOLUME,[3],61.83 fL
same,MONOCYTE,[3],1%
same,NEUTROPHIL,[3],10.33%
same,NUCLEATED RED BLOOD CELLS,[3],0 /100WBC
same,PLATELET COUNT,[3],1176.67 x10E3/uL
same,ALANINE AMINOTRANSFERASE,[3],51 u/L
same,ALBUMIN,[3],4.33 G/DL
same,ALKALINE PHOSPHATASE,[3],364.33 u/L
same,ASPARTATE AMINOTRANSFERASE,[3],99.67 u/L
same,BLOOD UREA NITROGEN,[3],17 mg/dL
same,CARBON DIOXIDE,[3],27 mmol/L
same,CHLORIDE,[3],96 MEQ/L
same,CHOLESTEROL,[3],62 mg/dL
same,CREATINE PHOSPHOKINASE,[3],636.33 u/L
same,CREATININE,[3],0.34 mg/dL
same,GLUCOSE,[3],180.67 mg/dL
same,LACTATE DEHYDROGENASE,[3],303.67 u/L
same,LIPASE,[3],9.33 u/L
same,PHOSPHORUS,[3],11.9 mg/dL
same,POTASSIUM,[3],5.92 MEQ/L
same,SODIUM,[3],141 MEQ/L
same,TOTAL BILIRUBIN,[3],0.1 mg/dL
same,TOTAL PROTEIN,[3],5.8 G/DL
same,URIC ACID,[3],2.07 mg/dL

# Reference: ChEMBL document CHEMBL3885881, “DrugMatrix”
